The subject of one experiment is ARPE-19 cells. Briefly: UOS-induced apoptosis in ARPE-19 cells (Hoechst-positive pyknotic cells). Type of experiment: cell-based, human. The settings on record: for protection against UOS: free fatty acids (FIGS. 7A and 7B); for UOS-induced apoptosis: 200 nM (FIG. 10C); for UOS-induced apoptotic cell death, concentration-dependent: 50-500 nM (FIG. 10G); for concentration of highest inhibition of UOS-induced apoptosis / concentration of lowest inhibition of UOS-induced apoptosis: tested 50-500 nM. How it is done:
(§1) ARPE19 cells at 75-80% confluence (72 h growth in DMEM/F12+10% FBS) in 6-well plates were serum-starved for 8 h before exposure. The serum-starved cells were treated with TNF-α (Sigma-Aldrich, St. Louis, Mo.) (10 ng/ml) and H2O2 (600 μM) to induce oxidative stress and challenged with increasing concentrations (50-500 nM) of VLC-PUFA (C32:6n3 and C34:6n3) simultaneously with oxidative stress for 16 h (apoptosis) and 6 h (Western-blot) before detection of apoptosis and harvesting for protein analysis. In some experiments, DHA at a concentration of 100 nM and 15-LOX-1 inhibitor PD146176 at a concentration of 1 μM was added to treat the RPE cells under stress. Cell extracts were made and protein concentrations adjusted by Bio-Rad (Hercules, Calif.) protein reagent and used for Western blot analysis.
To assess cell death, hRPE and ARPE-19 cells were fixed with methanol for 15 mins, washed with 1× PBS then loaded with 2 μM Hoechst dissolved in a Locke's solution (Promega) and incubated for another 15 mins before imaging. Cells were then viewed by using a Zeiss LSM 510 confocal microscope under UV fluorescence. Images were recorded and cell apoptosis was assessed by using an automated unbiased method.

A further experiment deals with ARPE-19 cells under UOS. Briefly: Western blot of pro-survival and pro-apoptotic proteins in ARPE-19 cells under UOS. As to conditions: for Iduna expression (VLC-PUFA): RPE cells under UOS (FIG. 7D); for SIRT1 expression (VLC-PUFA): RPE under UOS (FIG. 7C); for Bax protein / Bcl-2 protein / Bcl-xL protein / Bid protein / Bim protein: Western blot, UOS; for Prohibitin (type-1) expression (VLC-PUFA): concentration-dependent, 100 and 250 nM (FIG. 7J); for Iduna expression (ELV): 200 nM; for Sirtuin1 (SIRT1) expression (ELV): dose-dependent, 100-200 nM. The class given is cell-based, human. How it is done:
as §1
Analysis of Proteins: Bcl-2 family proteins, SIRT1 and Proinhibitin (type-1), and Iduna proteins were analyze by Western blot analysis. In brief, 20-25 μg equivalents of each cell extracts were subject to electrophoresis on a 4-12% gel (Promega) at 125 V for 2 h. The proteins were transferred to nitrocellulose membrane by I-blot transfer apparatus. The membranes were subjected to treatment with primary antibodies specific for Bcl-2, Bcl-xL, Bax, Bid, Bim, SIRT1 and Prohibitin (type-1) (Santa Cruz Biotechnology) and Iduna antibody (Neuro-Mab Lab, UCLA, Los Angeles, Calif.) overnight at 4° C. and probed for 45 mins with secondary antibody, goat anti-mouse Ig:horseradish peroxidase, and horseradish peroxidase-conjugated anti-biotin antibody, and then proteins were evaluated by using an ECL kit (Amersham).

In experiment [1] the test system is Sprague-Dawley rats, middle cerebral artery occlusion (MCAo). Briefly: Experimental ischemic stroke, 2 h middle cerebral artery occlusion (MCAo). The class given is in vivo, rat. The settings on record: for reduction of total lesion volume compared to CSF-treated group: T2WI on day 7, 5 μg/50 μl into right lateral ventricle 1 h after 2 h of MCAo; for IgG staining intensity compared with the CSF-treated group / IgG staining in the cortex: at 7 days; for IgG staining intensity compared with the CSF-treated group: ipsilateral hemisphere; for IgG immunoreactivity in cortex, subcortex and whole hemisphere (total): versus the vehicle group (FIG. 22B). How it is done: Middle cerebral artery occlusion and cannula implantation into the right lateral ventricle: Male Sprague-Dawley rats (Charles River Lab., Wilmington, Mass.) weighing 280-340 g were fasted overnight but allowed free access to water. Atropine sulfate (0.5 mg/kg, i.p.) was injected 10 mins before anesthesia. Anesthesia was induced with 3% isoflurane in a mixture of 70% nitrous oxide and 30% oxygen. All rats were orally intubated and mechanically ventilated. During ventilation, the animals were paralyzed with pancuronium bromide (0.6 mg/kg, i.p.). The catheters were implanted into the right femoral artery and vein for the blood sampling and infusion of drug. Serial analyses of arterial blood gases, plasma glucose, arterial blood pressure and heart beating rate were conducted before and during surgical procedure. Rectal (CMA/150 Temperature Controller, CMA/Microdialysis AB, Stockholm, Sweden) and cranial (temporalis muscle; Omega Engineering, Stamford, Conn.) temperatures were closely monitored before, during and after MCAo. Rectal temperature and body weight were monitored daily until sacrifice.
Rats underwent 2 h of right middle cerebral artery occlusion (MCAo) by an intraluminal-filament. In brief, the right common carotid artery (CCA) bifurcation was exposed through a midline neck incision and the occipital artery branches of the external carotid artery were isolated, ligated and dissected. After careful isolation of the internal carotid artery (ICA), a 3-0 monofilament coated with poly-L-lysine was advanced through the ICA to the MCA until mild resistance was felt. The neck incision was closed with a silk suture and the animals were then allowed to recover. After 2 h of MCAo, rats were re-anesthetized with the same anesthetic combination. Temperature probes were re-inserted, and intraluminal sutures were carefully removed. The animals given free access to food and water for 7 days.
Thirty minutes after suture removal, a brain infusion cannula was implanted into the right lateral ventricle for treatment administration in each rat. Rats were anesthetized with 3% isoflurane and were secured to a stereotaxic apparatus with skull leveled between bregma and lambda. A sterile stainless steel cannula (5-mm long) was implanted into the lateral ventricle using the stereotaxic coordinates (0.2 mm caudal to bregma, 2 mm lateral to midline, and 5 mm below the dura). Cannulas were removed after treatment was completed.
Treatment: Elovanoids (ELV) as sodium salts (Na) or methyl esters (Me) were dissolved in artificial cerebral spinal fluid (CSF) and administered into right lateral ventricle 1 hour after 2 h of MCAo. The following ELVs were used: ELV-N32-Na, ELV-N32-Me, ELV-N34-Na and ELV-N34-Me (5 μg/50 μl) or CSF (50 μl). All treatments were administered by a researcher blinded to the treatment groups.
Neurological/Behavioral Tests: Behavioral tests were performed by an observer blinded to the treatment groups at 60 mins (during MCAo) and then on days 1, 2, 3 and 7 after MCAo. The battery consisted of two tests that have been used previously to evaluate various aspects of neurologic function: (1) the postural reflex test, to examine upper body posture while the animal is suspended by the tail; and (2) the forelimb placing test, to examine sensorimotor integration in forelimb placing responses to visual, tactile and proprioceptive stimuli. Neurological function was graded on a scale of 0-12 (normal score=0, maximal score=12).
Magnetic resonance imaging (MRI) acquisition and analysis of total lesion, core and penumbra volumes: High resolution ex vivo MRI was performed on 4% paraformaldehyde-fixed brains on day 7 using an 11.7T Bruker Advance 8.9 cm horizontal bore instrument equipped with an 89 mm (ID) receiver coil (Bruker Biospin, Billerica, Mass.). T2 weighted images (T2WI), diffusion weighted images (DWI), 3D volumes, and apparent diffusion coefficient (ADC) maps were collected. T2 and ADC maps were computed from T2WI and DWI, respectively. […]

These results are taken from patent US20220226270A1, “VERY-LONG-CHAIN POLYUNSATURATED FATTY ACIDS, ELOVANOID HYDROXYLATED DERIVATIVES, AND METHODS OF USE” (Board of Supervisors of Louisiana State University and …, priority 2019, published 2022).

Regarding `CC/C=C\C/C=C\C/C=C\C/C=C\C/C=C\C/C=C\CCCCCCCCCCCCC(=O)O` [32:6n3, (14Z,17Z,20Z,23Z,26Z,29Z)-dotriaconta-14,17,20,23,26,29-hexaenoic acid], the “protection against UOS” value with ARPE-19 cells is “elicit protection”. In addition, in the experiment with ARPE-19 cells under UOS, the “Iduna expression (VLC-PUFA)” value is listed as “upregulation”, the “SIRT1 expression (VLC-PUFA)” value is “upregulation”, the Bax protein entry is recorded as “down regulated” and the Bcl-2 protein entry is listed as “upregulate”. In addition, in the experiment with ARPE-19 cells under UOS, the Bcl-xL protein result is given as “upregulate”, the Bid protein entry was “down regulated”, the Bim protein entry is “down regulated” and the “Prohibitin (type-1) expression (VLC-PUFA)” value is on record as “upregulation”.
With `CC/C=C\C/C=C\C/C=C\C/C=C\C/C=C\C/C=C\CCCCCCCCCCCCCCC(=O)O` [34:6n3, (16Z,19Z,22Z,25Z,28Z,31Z)-tetratriaconta-16,19,22,25,28,31-hexaenoic acid], the “protection against UOS” value with ARPE-19 cells is reported as “elicit protection”. In the experiment on ARPE-19 cells under UOS, the “Iduna expression (VLC-PUFA)” value was “upregulation”, the “SIRT1 expression (VLC-PUFA)” value is reported as “upregulation”, the Bax protein entry was “down regulated” and the Bcl-2 protein entry is recorded as “upregulate”. For the same compound, in the experiment on ARPE-19 cells under UOS, the Bcl-xL protein entry is listed as “upregulate”, the Bid protein result is given as “down regulated”, the Bim protein result was “down regulated” and the “Prohibitin (type-1) expression (VLC-PUFA)” value is “upregulation”.
`CC/C=C\C[C@H](O)\C=C/C=C/C=C/[C@H](O)C/C=C\C/C=C\CCCCCCCCCCCCC(=O)OC` [ELV-N32-Me, methyl (14Z,17Z,20R,21E,23E,25Z,27S,29Z)-20,27-dihydroxydotriaconta-14,17,21,23,25,29-hexaenoate]: in experiment [1], the “reduction of total lesion volume compared to CSF-treated group” value (shortened to “reduction of total lesion volume”) is reported as 56% and the “IgG staining intensity compared with the CSF-treated group” value was “similar”.
In the case of `CC/C=C\C[C@H](O)\C=C/C=C/C=C/[C@H](O)C/C=C\C/C=C\CCCCCCCCCCCCC(=O)[O-].[Na+]` [ELV-N32-Na, sodium (14Z,17Z,20R,21E,23E,25Z,27S,29Z)-20,27-dihydroxydotriaconta-14,17,21,23,25,29-hexaenoate], in the experiment with ARPE-19 cells, the UOS-induced apoptosis entry is recorded as “attenuation of apoptosis”; the “UOS-induced apoptotic cell death, concentration-dependent” value is listed as “attenuated”; the “concentration of highest inhibition of UOS-induced apoptosis” value was 500 nM; the “concentration of lowest inhibition of UOS-induced apoptosis” value is recorded as 50 nM. In the experiment with ARPE-19 cells under UOS, the “Iduna expression (ELV)” value is listed as “enhanced”, the Bcl-2 protein result was “enhanced the abundance”, the Bcl-xL protein result was “enhanced the abundance” and the “Sirtuin1 (SIRT1) expression (ELV)” value is listed as “upregulate”. Besides, the “relative potency in upregulating SIRT1” value in the experiment on ARPE-19 cells under UOS (UOS RPE cells) is “more potent than ELV-N34-Na”. Moreover, in experiment [1], the “reduction of total lesion volume” value is given as 60% and the “IgG staining intensity compared with the CSF-treated group” value was “similar”.
Regarding `CC/C=C\C[C@H](O)\C=C/C=C/C=C/[C@H](O)C/C=C\C/C=C\CCCCCCCCCCCCCCC(=O)OC` [ELV-N34-Me, methyl (16Z,19Z,22R,23E,25E,27Z,29S,31Z)-22,29-dihydroxytetratriaconta-16,19,23,25,27,31-hexaenoate], in the experiment on ARPE-19 cells, the “UOS-induced apoptotic cell death, concentration-dependent” value is “attenuated”; the “concentration of highest inhibition of UOS-induced apoptosis” value is listed as 500 nM; the “concentration of lowest inhibition of UOS-induced apoptosis” value was found to be 50 nM. Also, in experiment [1], the “reduction of total lesion volume” value is listed as 91%; the “IgG staining in the cortex” value is given as “significantly less IgG staining”; the “IgG immunoreactivity in cortex, subcortex and whole hemisphere (total)” value is “significantly reduced”.
For `CC/C=C\C[C@H](O)\C=C/C=C/C=C/[C@H](O)C/C=C\C/C=C\CCCCCCCCCCCCCCC(=O)[O-].[Na+]` [ELV-N34-Na, sodium (16Z,19Z,22R,23E,25E,27Z,29S,31Z)-22,29-dihydroxytetratriaconta-16,19,23,25,27,31-hexaenoate], the UOS-induced apoptosis result with ARPE-19 cells is given as “attenuation of apoptosis”. In addition, in the experiment with ARPE-19 cells under UOS, the “Iduna expression (ELV)” value was “enhanced”, the Bcl-2 protein result is recorded as “enhanced the abundance”, the Bcl-xL protein result is given as “enhanced the abundance” and the “Sirtuin1 (SIRT1) expression (ELV)” value is recorded as “upregulate”. In experiment [1], the “reduction of total lesion volume” value came to 99%; the “IgG staining in the cortex” value is “significantly less IgG staining”; the “IgG immunoreactivity in cortex, subcortex and whole hemisphere (total)” value is reported as “significantly reduced”.
